In the METLIN SMRT retention time set (Domingo-Almenara et al. 2019) one finds RP-LC retention time data, which are given here for 59 compounds.

The nature of the series: gradient 5% acetonitrile 3 min, to 50% in 2 min, to 85% in 15 min, held 3 min, 100 µL/min. Conditions: column: Zorbax Extend-C18 2.1 x 50 mm; eluents: water / acetonitrile, 0.1% formic acid. In short, it runs like this: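 In both positive and negative ionization mode, a quadrupole time-of-flight mass spectrometer coupled to HPLC analyzed pure standards run in mixtures of ~100 molecules. The Zorbax Extend-C18 column (2.1 × 50 mm, 1.8 μm) was operated at 100 μL/min with water and acetonitrile, each containing 0.1% formic acid. The dead volume was 40 μL and the dwell volume 900 μL. Retention time came from adduct peaks that were computationally picked and individually inspected by hand.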
`Cc1nc(-c2ccc(N3CCN(C(=O)c4cc5ccccc5[nH]4)CC3)nc2)sc1C` returned an RP-LC retention time of 924 s.

In turn, `COC(=O)c1sccc1NC(=O)N1CCCC1c1noc(COc2ccc(F)cc2)n1` (centres undefined) had an RP-LC retention time of 1040 s.

Turning to `Cn1nc(C(=O)N2CCCCC2)c2c1CCN(C(=O)CCC(=O)N1CCCC1)C2`, the RP-LC retention time came out at 622 s.

Take `COc1cccc(CNc2ccc3[nH]c(=O)[nH]c3c2)c1OC`: the RP-LC retention time is 593 s.

As for `CC(C)(C)c1ccc(C(=O)Nc2nnc(-c3ccccn3)o2)cc1`, the RP-LC retention time is 751 s.

`CCOC(=O)c1c(S(=O)(=O)N2CCC(C(=O)Nc3ccc(C)cc3)CC2)c(C)n(C)c1C`: the RP-LC retention time came to 886 s.

With `Cc1ccc(N2CC(c3nc(-c4ccccn4)no3)CC2=O)cc1Cl` (centres undefined), the RP-LC retention time is 838 s.

Compound `COc1ccc(C)cc1NC(=O)Cn1nc(N2CCSCC2)c2ccccc2c1=O` yielded an RP-LC retention time of 1040 s.

As for `CC1CCC(NC(=O)CN2C(=O)CCCc3cc(S(=O)(=O)N4CCCCC4)ccc32)CC1` (centres undefined), the RP-LC retention time worked out at 945 s.

Turning to `COc1ccc(-c2cc(=O)n3c4ccccc4n(CC(=O)Nc4ccc(F)cc4)c3n2)cc1`, the RP-LC retention time worked out at 1010 s.

`CCC(C)NC(=O)c1nnc(-c2ccc(S(=O)(=O)N3CCOCC3)cc2)o1` (centres undefined): the RP-LC retention time is 787 s.

On to `Cc1nc(N2CCOCC2)cc(N2CCN(C(=O)c3ccc(Br)o3)CC2)n1`, for which the RP-LC retention time came to 619 s.

Compound `Cc1ccc(NC(=O)c2cnc3c(c2)c(=O)n(C)c(=O)n3-c2ccccc2)c(F)c1` registered an RP-LC retention time of 887 s.

The compound `Cc1ccc(C)c(NC(=O)C2CCCN2S(=O)(=O)c2cc3c(cc2C)NC(=O)C(C)O3)c1` (centres undefined) came in with an RP-LC retention time of 845 s.

As for `CC(C)C(=O)N1CCC2(CC1)CCC(O)(CN(C)C)CC2`, the RP-LC retention time came out at 559 s.

`O=C(NCCN1CCCCC1)C1CCc2sc(C(=O)N3CCCCC3)cc2C1` (centres undefined) came in with an RP-LC retention time of 558 s.

The compound `CC1Cc2ccc(CNC(=O)NC(C)(C)C)cc2N1C(=O)c1ccccc1` (centres undefined) had an RP-LC retention time of 853 s.

`Brc1ccc(-c2noc(Cc3nc(-c4ccc5c(c4)OCO5)cs3)n2)cc1` yielded an RP-LC retention time of 1270 s.

`CCN1CCN(CC2CCN(S(=O)(=O)c3cc(F)cc(F)c3)CC2)CC1`: the RP-LC retention time was 598 s.

With `CCOC(=O)CNC(=O)N1CCC2(CC1)NC(=O)c1ccccc1O2`, the RP-LC retention time was determined as 630 s.

`CC(C)CCNC(=O)C1CCCN(c2nc3ccsc3c(=O)n2Cc2ccccc2)C1` (centres undefined) registered an RP-LC retention time of 955 s.

`CCn1nccc1-c1cccc(-c2noc(-c3ccc(C)s3)n2)c1` registered an RP-LC retention time of 1250 s.

With `COc1ccc2c(c1)c(CN1CCC(C(=O)NCc3ccccc3C)CC1)cn2C`, the RP-LC retention time came to 697 s.

Turning to `Cn1cc(CCN2CCN(C(=O)c3ccc(Br)cc3)CC2)c2cccnc21`, the RP-LC retention time came to 620 s.

Turning to `Cc1nn(CC(=O)NCCCN2CC(C)CC(C)C2)c(=O)c2c1sc1ccccc12` (centres undefined), the RP-LC retention time worked out at 691 s.

`COc1c(C(=O)N2CCN(CC(C)C)CC2)sc2cc(Cl)ccc12` had an RP-LC retention time of 697 s.

For the compound `Cc1ccc(C(=O)N(CCc2cscn2)Cc2cccnc2)cc1C`, the RP-LC retention time is 636 s.

In turn, `COCCCNC(=O)C1CCN(c2cncnc2N2CCOCC2)CC1` came in with an RP-LC retention time of 550 s.

For the compound `CCOCCCNC(=O)N1CCC(c2noc(-c3cnccn3)n2)C1` (centres undefined), the RP-LC retention time stood at 614 s.

In turn, `Clc1ccc(-c2nc3cnccn3c2Nc2cccc(Cl)c2)cc1` had an RP-LC retention time of 1060 s.

Compound `CCCS(=O)(=O)c1nc2ccc(NS(=O)(=O)c3ccc(F)c(F)c3)cc2s1` yielded an RP-LC retention time of 973 s.

For `CS(=O)(=O)NCc1ccc2c(c1)CCN2C(=O)c1ccccc1`, the RP-LC retention time came to 733 s.

Take `Cc1nc(-c2csc(S(=O)(=O)N3CCC(C(=O)Nc4ccccc4)CC3)c2)no1`: the RP-LC retention time turned out to be 878 s.

`O=C([C@@H]1C[C@H](F)CN1C(=O)c1ccccc1)N1CCCCC1`: the RP-LC retention time is 668 s.

`CSc1ccccc1NC(=O)Cc1cc(-c2ccc(F)cc2)on1` yielded an RP-LC retention time of 919 s.

Compound `O=c1c2sccc2n(Cc2nc(-c3ccc(F)cc3)no2)c(=O)n1-c1ccc(F)cc1` came in with an RP-LC retention time of 987 s.

In turn, `O=C(CCc1nc2cccnc2n1-c1ccccc1)NCCc1c[nH]c2ccccc12` showed an RP-LC retention time of 706 s.

In turn, `CCOc1ccccc1NC(=O)NC1CCN(c2cc(N3CCCC3)cnn2)C1` (centres undefined) came in with an RP-LC retention time of 594 s.

With `O=C(CN1C(=O)c2ccccc2C1=O)Nc1nnc(C2=COCCO2)o1`, the RP-LC retention time was 609 s.

For `CCOc1cc2c(cc1OCC)C1C(C(=O)N3CCN(C)CC3)c3ccccc3C(=O)N1CC2` (centres undefined), the RP-LC retention time came out at 567 s.

As to `COC(=O)c1c(NCCc2ccccc2)c2cc(F)ccc2[nH]c1=O`, the RP-LC retention time turned out to be 791 s.

Consider `Nc1nc(SCC(=O)c2ccc(-c3ccccc3)cc2)n[nH]1`, for which the RP-LC retention time worked out at 677 s.

Regarding `O=C(Nc1ccc(F)cc1)C1CCN(C(=O)c2ncn3c2COC(c2ccccc2)C3)CC1` (centres undefined), the RP-LC retention time worked out at 791 s.

In turn, `Cc1ccc(-c2ncc3c(=O)n(CC(=O)N4CCCC4)c(=O)n(C)c3n2)cc1` yielded an RP-LC retention time of 888 s.

For the compound `CCN1C(=O)C(CC(=O)NCCCOC)Sc2ncccc21` (centres undefined), the RP-LC retention time was found to be 620 s.

With `Cc1ccc(C(=O)NCc2noc(C3CCCC3)n2)cc1`, the RP-LC retention time was determined as 842 s.

With `Fc1cc(F)cc(-c2nnc(Cc3nc(-c4cccc(C(F)(F)F)c4)no3)o2)c1`, the RP-LC retention time was 851 s.

`CC(NC(=O)c1c(O)c2cccnc2n(-c2cccc(F)c2)c1=O)c1ccc(F)cc1` (centres undefined) had an RP-LC retention time of 1210 s.

Consider `O=c1ccc(S(=O)(=O)N2CCOCC2)cn1Cc1ccc(Cl)cc1`, for which the RP-LC retention time was found to be 814 s.

As to `COCCNC(=O)Cc1c(C)n(Cc2ccccc2)c2nc(-c3ccccc3)nn2c1=O`, the RP-LC retention time was 776 s.

Regarding `O=C(Nc1ccccc1Cl)N1CCN(c2cc(-c3ccncc3)[nH]n2)CC1`, the RP-LC retention time worked out at 600 s.

Take `CCOc1ccccc1-c1noc(-c2cc(-c3ccccc3)n[nH]2)n1`: the RP-LC retention time was determined as 952 s.

`Cc1nc(-c2cc(S(=O)(=O)NCCCN3CCC(C)CC3)c(C)s2)sc1C`: the RP-LC retention time is 699 s.

`COc1ccc(Cc2nc(-c3ccc4oc(C)nc4c3)no2)c(Cl)c1` yielded an RP-LC retention time of 1060 s.

`CCC(CC)C(=O)N1CCc2c(c(-c3nnc(-c4ccccc4Cl)o3)nn2C)C1` yielded an RP-LC retention time of 899 s.

`Cc1ccc(NS(=O)(=O)c2cn(CC(C)C)c3ncccc23)cc1` yielded an RP-LC retention time of 986 s.

As to `O=C(NCc1ccc(Br)cc1)C1CCN(c2cnc3nccnc3c2)CC1`, the RP-LC retention time amounted to 746 s.

`CCOc1coc(C(=O)Nc2cccc(F)c2)cc1=O`: the RP-LC retention time came out at 695 s.

Turning to `CC(C)Cn1cc(S(=O)(=O)Nc2ccc(F)cc2Cl)c2cccnc21`, the RP-LC retention time is 1010 s.
